From US6476189B1, “Antibacterial peptides and antibacterial agents containing such peptides as an effective ingredient” (National Institute of Agrobiological Sciences, priority 1998, dated 2002)
Converted amounts (≈) assume the structure as drawn. Residues, ends and D or L forms follow the SMILES beside them.

How the values were obtained:
Assay type in all cases: cell-based
[1] = tested on: Pseudomonas aeruginosa
Procedure: (§1) Minimum Inhibitory Concentration (MIC) of these antibacterial peptides (1) to (5) against Staphylococcus aureus, methicillin resistant Staphylococcus aureus (MRSA), Escherichia coli and Pseudomonas aeruginosa was determined.

[2] = tested on: Staphylococcus aureus
Procedure: as §1

[3] = tested on: methicillin resistant Staphylococcus aureus (MRSA)
Procedure: as §1

SMILES | MIC P. aeruginosa [1] | MIC S. aureus [2] | MIC MRSA [3]
CC[C@H](C)[C@H](NC(=O)[C@H](C)NC(=O)[C@H](CC(C)C)NC(=O)[C@H](Cc1c[nH]c2ccccc12)NC(=O)[C@H](CC(C)C)NC(=O)[C@H](C)N)C(=O)N[C@@H](CCCNC(=N)N)C(=O)N[C@@H](CCCCN)C(=O)N[C@@H](CCCNC(=N)N)C(N)=O [present peptide (5), Ala-Leu-Trp-Leu-Ala-Ile-Arg-Lys-Arg-NH2] (H-ALWLAIRKR-NH2; N-terminus assumed) | 10 µg/mL (≈ 8.89 µM) | 4 µg/mL (≈ 3.55 µM) | 40 µg/mL (≈ 35.5 µM)
CC[C@H](C)[C@H](NC(=O)[C@H](C)NC(=O)[C@H](CC(C)C)NC(=O)[C@H](CC(C)C)NC(=O)[C@H](Cc1c[nH]c2ccccc12)NC(=O)[C@H](C)N)C(=O)N[C@@H](CCCNC(=N)N)C(=O)N[C@@H](CCCCN)C(=O)N[C@@H](CCCNC(=N)N)C(N)=O [present peptide (3), Ala-Trp-Leu-Leu-Ala-Ile-Arg-Lys-Arg-NH2] (H-AWLLAIRKR-NH2; N-terminus assumed) | 4 µg/mL (≈ 3.55 µM) | 3 µg/mL (≈ 2.67 µM) | 25 µg/mL (≈ 22.2 µM)
CC[C@H](C)[C@H](NC(=O)[C@H](C)NC(=O)[C@H](CC(C)C)NC(=O)[C@H](CCCNC(=N)N)NC(=O)[C@H](CC(C)C)NC(=O)[C@H](C)N)C(=O)N[C@@H](CCCNC(=N)N)C(=O)N[C@@H](CCCCN)C(=O)N[C@@H](CCCNC(=N)N)C(N)=O [present peptide (1), Ala-Leu-Arg-Leu-Ala-Ile-Arg-Lys-Arg-NH2] (H-ALRLAIRKR-NH2; N-terminus assumed) | >15 µg/mL | 5 µg/mL (≈ 4.56 µM) | 
CC[C@H](C)[C@H](NC(=O)[C@H](C)NC(=O)[C@H](CC(C)C)NC(=O)[C@H](CC(C)C)NC(=O)[C@H](CC(C)C)NC(=O)[C@H](C)N)C(=O)N[C@@H](CCCNC(=N)N)C(=O)N[C@@H](CCCCN)C(=O)N[C@@H](CCCNC(=N)N)C(N)=O [present peptide (2), Ala-Leu-Leu-Leu-Ala-Ile-Arg-Lys-Arg-NH2] (H-ALLLAIRKR-NH2; N-terminus assumed) | 4 µg/mL (≈ 3.8 µM) | 4 µg/mL (≈ 3.8 µM) | 40 µg/mL (≈ 38 µM)
CC[C@H](C)[C@H](NC(=O)[C@H](C)NC(=O)[C@H](CC(C)C)NC(=O)[C@H](Cc1ccc(O)cc1)NC(=O)[C@H](CC(C)C)NC(=O)[C@H](C)N)C(=O)N[C@@H](CCCNC(=N)N)C(=O)N[C@@H](CCCCN)C(=O)N[C@@H](CCCNC(=N)N)C(N)=O [present peptide (4), Ala-Leu-Tyr-Leu-Ala-Ile-Arg-Lys-Arg-NH2] | 4 µg/mL (≈ 3.63 µM) | 2 µg/mL (≈ 1.81 µM) | 30 µg/mL (≈ 27.2 µM)
